Measured values: ChEMBL document CHEMBL5385896, “Discovery of PIM-1 kinase inhibitors based on the 2,5-disubstituted 1,3,4-oxadiazole scaffold against prostate cancer: Design, synthesis, in vitro and in vivo cytotoxicity investigation” (Eur J Med Chem, 2023)
Values belong to the compound of their own block, whether it stands above or below them. Activity calls are given as the source filed them. The calls are words filed in the database; no cut-off is given here.

How the values were obtained:
[1] = Antioxidant activity assessed as DPPH radical scavenging activity incubated for 30 mins; type: functional
[2] = test system: MCF7; test: cells; type: functional, cell-based; conditions: Homo sapiens, MCF7, 48 h
Description: Cytotoxicity against human MCF7 cells assessed as inhibition of cell growth incubated for 48 hrs by MTT assay

[3] = test system: PC-3; test: cells; type: functional, cell-based; conditions: Homo sapiens, PC-3, 48 h
Description: Cytotoxicity against human PC-3 cells assessed as inhibition of cell growth incubated for 48 hrs by MTT assay

[4] = in vitro; conditions: human, RWPE2 cells
Description: Cytotoxicity against human RWPE2 cells assessed as inhibition of cell growth incubated for 48 hrs by MTT assay

[5] = test system: HepG2; test: Cytotoxicity against human HepG2 cells assessed as inhibition of cell growth incubated for 48 hrs by MTT assay; type: functional, cell-based; conditions: HepG2, 48 h
[6] = Antioxidant activity assessed as DPPH radical scavenging activity at 100 uM incubated for 30 mins relative to control; type: functional
[7] = test system: PC-3; test: Antitumor activity against human PC-3 cells xenografted in mouse assessed as increase in RBC count at 5.2 mg/kg,ip administration (reference value: 2.34 +/- 0.57 10^6/microL); type: functional
[8] = test system: PC-3; test: Antitumor activity against human PC-3 cells xenografted in mouse assessed as decrease in ALT level at 5.2 mg/kg,ip administration (reference value: 81.25 +/- 1.69 I/U); type: functional
[9] = test system: PC-3; test: Antitumor activity against human PC-3 cells xenografted in mouse assessed as decrease in AST level at 5.2 mg/kg,ip administration (reference value: 85.38 +/- 1.59 I/U); type: functional
[10] = test system: PC-3; test: Antitumor activity against human PC-3 cells xenografted in mouse assessed as increase in total protein level at 5.2 mg/kg,ip administration (reference value: 4.01 +/- 0.27 g/dl); type: functional
[11] = test system: PC-3; test: Antitumor activity against human PC-3 cells xenografted in mouse assessed as decrease in WBC count at 5.2 mg/kg,ip administration (reference value: 4.98 +/- 0.87 10^3/microL); type: functional
[12] = test system: PC-3; test: Antitumor activity against human PC-3 cells xenografted in mouse assessed as decrease in tumor mass at 5.2 mg/kg,ip administration; type: functional; parameters: scale not given: the % may be the effect or the level left
[13] = test system: PC-3; test: Antitumor activity against human PC-3 cells xenografted in mouse assessed as increase in hemoglobin level at 5.2 mg/kg,ip administration (reference value: 2.94 +/- 0.54 g/dl); type: functional
[14] = test system: PC-3; test: Antitumor activity against human PC-3 cells xenografted in mouse assessed as decrease in tumor volume at 5.2 mg/kg,ip administration; type: functional
[15] = molecular target: Serine/threonine-protein kinase pim-1 (Homo sapiens, UniProt P11309); test: Inhibition of PIM-1 (unknown origin)
[16] = test system: PC-3; test: Induction of apoptosis in human PC-3 cells at 0.017 uM incubated for 48 hrs by Annexin V-FITC and PI staining based flow cytometric analysis relative to control; type: functional
[17] = test system: PC-3; test: Antitumor activity against human PC-3 cells xenografted in mouse assessed as decrease in tumor mass at 4.2 mg/kg,ip administration; type: functional
[18] = test system: PC-3; test: Induction of apoptosis in human PC-3 cells assessed as fold decrease in STAT3 gene expression at 0.017 uM incubated for 48 hrs by RT-PCR analysis; type: functional
[19] = test system: PC-3; test: Induction of apoptosis in human PC-3 cells assessed as fold change in p53 gene expression at 0.017 uM incubated for 48 hrs by RT-PCR analysis; type: functional
[20] = test system: PC-3; test: Induction of apoptosis in human PC-3 cells assessed as fold increase in apoptosis at 0.017 uM incubated for 48 hrs by DAPI-staining based confocal microscopic analysis; type: functional
[21] = test system: PC-3; test: Induction of apoptosis in human PC-3 cells assessed as late apoptotic cells at 0.017 uM incubated for 48 hrs by Annexin V-FITC and PI staining based flow cytometric analysis (reference value: 0.18 %); type: functional
[22] = test system: PC-3; test: Antitumor activity against human PC-3 cells xenografted in mouse assessed as decrease in tumor volume at 4.2 mg/kg,ip administration; type: functional
[23] = test system: PC-3; test: Induction of apoptosis in human PC-3 cells assessed as fold decrease in JAK2 gene expression at 0.017 uM incubated for 48 hrs by RT-PCR analysis; type: functional
[24] = test system: PC-3; test: Induction of apoptosis in human PC-3 cells assessed as fold change in caspase-9 gene expression at 0.017 uM incubated for 48 hrs by RT-PCR analysis; type: functional
[25] = test system: PC-3; test: Induction of cell cycle arrest in human PC-3 cells assessed as accumulation of cells at S-phase at 0.017 uM incubated for 48 hrs by Annexin V-FITC and PI staining based flow cytometric analysis (reference value: 42.08 %); type: functional
[26] = test system: PC-3; test: Antitumor activity against human PC-3 cells xenografted in mouse assessed as tumor growth inhibition at 4.2 mg/kg,ip administration; type: functional; conditions: read-out: TGI
[27] = test system: PC-3; test: Induction of apoptosis in human PC-3 cells assessed as fold change in caspase-3 gene expression at 0.017 uM incubated for 48 hrs by RT-PCR analysis; type: functional
[28] = test system: PC-3; test: Antitumor activity against human PC-3 cells xenografted in mouse assessed as hepatocyte balloon degeneration at 5.2 mg/kg,ip administration by; type: functional, organism-based
[29] = test system: PC-3; test: Antitumor activity against human PC-3 cells xenografted in mouse assessed as decrease in body weight loss at 4.2 mg/kg,ip administration; type: functional, organism-based
[30] = test system: PC-3; test: Induction of apoptosis in human PC-3 cells assessed as fold change in caspase-8 gene expression at 0.017 uM incubated for 48 hrs by RT-PCR analysis; type: functional
[31] = test system: PC-3; test: Induction of apoptosis in human PC-3 cells assessed as early apoptotic cells at 0.017 uM incubated for 48 hrs by Annexin V-FITC and PI staining based flow cytometric analysis (reference value: 0.27 %); type: functional
[32] = test system: PC-3; test: Antitumor activity against human PC-3 cells xenografted in mouse assessed as hepatocyte hydropic degeneration at 5.2 mg/kg,ip administration by; type: functional, organism-based
[33] = Toxicity in mouse xenografted with human PC-3 cells assessed as lethal dose at ip administration; type: organism-based; conditions: in vivo
[34] = test system: PC-3; test: Induction of apoptosis in human PC-3 cells assessed as nuclear condensation at 0.017 uM incubated for 48 hrs by DAPI-staining based confocal microscopic analysis; type: functional, cell-based
[35] = test system: PC-3; test: Induction of cell cycle arrest in human PC-3 cells assessed as accumulation of cells at G1-phase at 0.017 uM incubated for 48 hrs by Annexin V-FITC and PI staining based flow cytometric analysis (reference value: 44.73 %); type: functional
[36] = test system: PC-3; test: Induction of apoptosis in human PC-3 cells assessed as fold change in PUMA gene expression at 0.017 uM incubated for 48 hrs by RT-PCR analysis; type: functional
[37] = test system: PC-3; test: Induction of cell cycle arrest in human PC-3 cells assessed as accumulation of cells at PreG1-phase at 0.017 uM incubated for 48 hrs by Annexin V-FITC and PI staining based flow cytometric analysis (reference value: 1.37 %); type: functional
[38] = test system: PC-3; test: Induction of apoptosis in human PC-3 cells assessed as fold decrease in BCL-2 gene expression at 0.017 uM incubated for 48 hrs by RT-PCR analysis; type: functional
[39] = test system: PC-3; test: Induction of apoptosis in human PC-3 cells assessed as necrotic cells at 0.017 uM incubated for 48 hrs by Annexin V-FITC and PI staining based flow cytometric analysis (reference value: 0.77 %); type: functional
[40] = test system: PC-3; test: Induction of cell cycle arrest in human PC-3 cells assessed as accumulation of cells at G2/M-phase at 0.017 uM incubated for 48 hrs by Annexin V-FITC and PI staining based flow cytometric analysis (reference value: 13.19 %); type: functional
[41] = test system: PC-3; test: Antitumor activity against human PC-3 cells xenografted in mouse assessed as decrease in liver damage at 5.2 mg/kg,ip administration by; type: functional, organism-based

Serine/threonine-protein kinase pim-1, sequence (P11309 whole entry): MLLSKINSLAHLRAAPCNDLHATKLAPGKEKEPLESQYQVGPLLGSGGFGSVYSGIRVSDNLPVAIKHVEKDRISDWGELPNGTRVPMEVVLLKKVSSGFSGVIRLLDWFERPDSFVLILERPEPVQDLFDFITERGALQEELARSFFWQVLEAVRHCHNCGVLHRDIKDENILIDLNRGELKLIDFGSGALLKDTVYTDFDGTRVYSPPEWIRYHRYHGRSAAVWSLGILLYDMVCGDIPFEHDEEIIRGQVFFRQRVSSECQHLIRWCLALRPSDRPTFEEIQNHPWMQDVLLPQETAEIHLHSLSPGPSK

Structure (SMILES): COc1ccc(-c2nnc(-c3ccnc(-c4ccccc4)c3)o2)c(F)c1
IC50 [2]: 20.5 µM
IC50 [3]: 2.01 µM
IC50 [5]: 13.7 µM

Structure (SMILES): Fc1cccc(-c2nnc(-c3ccnc(-c4ccc(C(F)(F)F)cc4)c3)o2)c1
Activity [1]: Dose-Dependent Effect
IC50 [2]: 70.1 µM
IC50 [3]: 0.76 µM
IC50 at 48 h [4]: 31.9 µM
IC50 [5]: 6.02 µM

Structure (SMILES): Cc1c(C)c2c(c(C)c1O)CCC(C)(C(=O)O)O2 (configuration not stated)
Activity [6]: 96%

Structure (SMILES): COc1ccc(-c2nnc(-c3ccnc(-c4ccc(C(F)(F)F)cc4)c3)o2)cc1
IC50 [2]: 25.7 µM
IC50 [3]: 9.31 µM
IC50 [5]: 3.25 µM

Structure (SMILES): Fc1ccc(-c2nnc(-c3ccnc(-c4ccccc4)c3)o2)cc1
IC50 [2]: 18.9 µM
IC50 [3]: 2.31 µM
IC50 [5]: ≥ 50 µM

Structure (SMILES): CN[C@@H]1C[C@H]2O[C@@](C)([C@@H]1OC)n1c3ccccc3c3c4c(c5c6ccccc6n2c5c31)C(=O)NC4 [STAUROSPORINE]
Activity [7]: 4.95 10^6 /uL
Activity [8]: 50.4 U/L
Activity [9]: 47.38 U/L
Activity [10]: 5.39 g/dL
Activity [11]: 2.81 10^3 /uL
Activity [12]: 20%
IC50 [5]: 5.07 µM
Activity [13]: 6.52 g/dL
Activity [14]: 52.9 mm3

Structure (SMILES): Clc1cccc(-c2nnc(-c3ccnc(-c4ccccc4)c3)o2)c1
IC50 [15]: 17 µM
Activity [16]: 19.44%
Activity [17]: 89.4 mg
Activity [7]: 4.02 10^6 /uL
fold change (FC) [18]: 0.48
fold change (FC) [19]: 6.58
fold change (FC) [20]: 37.2
Activity [21]: 17.35%
Activity [22]: 34.1 mm3
Activity [8]: 49.8 U/L
Activity [9]: 48.9 U/L
Activity [10]: 5.74 g/dL
Activity [11]: 2.87 10^3 /uL
fold change (FC) [23]: 0.52
fold change (FC) [24]: 8.67
Activity [1]: Dose-Dependent Effect
IC50 [2]: 5.37 µM
Activity [25]: 45.18%
inhibition in vivo at 4.2 mg/kg [26]: 64.2%
Activity [6]: 94%
fold change (FC) [27]: 6.98
Activity [28]: Active
Activity [29]: Active
IC50 [3]: 0.016 µM
fold change (FC) [30]: 3.25
IC50 at 48 h [4]: 35.4 µM
Activity [31]: 2.09%
Activity [32]: Active
LD50 [33]: 4.2 mg/kg
IC50 [5]: 0.13 µM
Activity [34]: Active
Activity [35]: 47.36%
fold change (FC) [36]: 3.85
Activity [37]: 26.44%
Activity [13]: 6.89 g/dL
fold change (FC) [38]: 0.45
Activity [39]: 11.9%
Activity [40]: 7.46%
Activity [41]: Active

Second part, led by results:

IC50 [2]: 9.7 µM
IC50 [3]: 0.56 µM
IC50 at 48 h [4]: ≥ 50 µM
Structure (SMILES): COc1ccc(-c2nnc(-c3ccnc(-c4ccccc4)c3)o2)cc1
Activity [1]: Dose-Dependent Effect
IC50 [5]: 7.06 µM

IC50 [2]: 12.4 µM
IC50 [3]: 13.2 µM
Structure (SMILES): COc1cccc(-c2nnc(-c3ccnc(-c4ccc(C(F)(F)F)cc4)c3)o2)c1
IC50 [5]: ≥ 50 µM

IC50 [2]: 9.66 µM
IC50 [3]: ≥ 50 µM
Structure (SMILES): FC(F)(F)c1ccc(-c2cc(-c3nnc(-c4ccccc4)o3)ccn2)cc1
IC50 [5]: 4.03 µM

IC50 [2]: 3.8 µM
IC50 [3]: 6.21 µM
Structure (SMILES): Fc1cccc(-c2nnc(-c3ccnc(-c4ccccc4)c3)o2)c1
IC50 [5]: 4.31 µM

IC50 [2]: 13.7 µM
IC50 [3]: 0.82 µM
IC50 at 48 h [4]: 45.7 µM
Structure (SMILES): Fc1ccc(-c2nnc(-c3ccnc(-c4ccc(C(F)(F)F)cc4)c3)o2)cc1
Activity [1]: Dose-Dependent Effect
IC50 [5]: 7.21 µM

IC50 [2]: 0.75 µM
IC50 [3]: 3.21 µM
Structure (SMILES): COc1cccc(-c2nnc(-c3ccnc(-c4ccccc4)c3)o2)c1
IC50 [5]: ≥ 50 µM

IC50 [2]: 10 µM
IC50 [3]: ≥ 50 µM
Structure (SMILES): FC(F)(F)c1ccc(-c2cc(-c3nnc(-c4cccc(Cl)c4)o3)ccn2)cc1
IC50 [5]: 3.24 µM

IC50 [2]: 8.36 µM
IC50 [3]: 12.7 µM
IC50 at 48 h [4]: 42.6 µM
Structure (SMILES): c1ccc(-c2cc(-c3nnc(-c4ccccc4)o3)ccn2)cc1
IC50 [5]: 13.9 µM
